Assays:
Format in all cases: in vivo
[1] = test system: barnyardgrass (Echinochloa crus-galli); experiment: Test B flooded paddy test; conditions: Echinochloa crus-galli, 250 g ai/ha, Flood; 0 to 100 scale where 0 is no effect and 100 is complete control; read-out: Barnyardgrass plant response rating
In short: (§1)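 Rating scale 0–100 (visual, vs untreated controls) after a 13–15 d greenhouse period; application to the flood layer, 3 cm above soil and maintained; plants at 2-leaf stage when treated.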

[2] = test system: sedge, umbrella (small-flower umbrella sedge, Cyperus difformis); experiment: Test B flooded paddy test; conditions: Cyperus difformis, 250 g ai/ha, Flood; 0 to 100 scale where 0 is no effect and 100 is complete control; read-out: Sedge, Umbrella plant response rating
In short: as §1

[3] = test system: ducksalad (Heteranthera limosa); experiment: Test B flooded paddy test; conditions: Heteranthera limosa, 250 g ai/ha, Flood; 0 to 100 scale where 0 is no effect and 100 is complete control; read-out: Ducksalad plant response rating
In short: as §1

[4] = test system: rice (Oryra sativa); experiment: Test B flooded paddy test; conditions: Oryza sativa, 250 g ai/ha, Flood; 0 to 100 scale where 0 is no effect and 100 is complete control; read-out: Rice plant response rating
In short: as §1

[5] = test system: ryegrass, Italian (Italian ryegrass, Lolium multiflorum); experiment: Test A postemergence; conditions: Lolium multiflorum, post-emergence, 240 h, Postemergence, read-out: Ryegrass, Italian plant response rating (0 to 100 scale); for pest or weed control at 125 g/ha: 125 g ai/ha, visual rating about 10 d after treatment; for pest or weed control at 31 g/ha: 31 g ai/ha, 0 is no effect, 100 is complete control
In short: (§2)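 Preemergence soil spray on seeded pots or post-emergence spray on 1–2 leaf plants, in loam–sand blend. Greenhouse ~10 d. Visual rating 0–100 against untreated plants.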

[6] = test system: ragweed (common ragweed, Ambrosia elatior); experiment: Test A postemergence; conditions: Ambrosia artemisiifolia, post-emergence, 240 h, Postemergence, read-out: Ragweed plant response rating (0 to 100 scale); for pest or weed control at 125 g/ha: 125 g ai/ha, visual rating about 10 d after treatment; for pest or weed control at 31 g/ha: 31 g ai/ha, 0 is no effect, 100 is complete control
In short: as §2

[7] = test system: barnyardgrass (Echinochloa crus-galli); experiment: Test A postemergence; conditions: Echinochloa crus-galli, post-emergence, 240 h, Postemergence; for pest or weed control at 125 g/ha: 125 g ai/ha, visual rating about 10 d after treatment, read-out: Barnyardgrass plant response rating (0 to 100 scale, 0 no effect, 100 complete control); for pest or weed control at 31 g/ha: 31 g ai/ha, 0 is no effect, 100 is complete control, read-out: Barnyardgrass plant response rating (0 to 100 scale)
In short: as §2

[8] = test system: wheat (Triticum aestivum); experiment: Test A postemergence; conditions: Triticum aestivum, post-emergence, 240 h, Postemergence, read-out: Wheat plant response rating (0 to 100 scale); for plant injury at 125 g/ha: 125 g ai/ha, visual rating about 10 d after treatment; for plant injury at 31 g/ha: 31 g ai/ha, 0 is no effect, 100 is complete control
In short: as §2

[9] = test system: Galium (catchweed bedstraw, Galium aparine); experiment: Test A postemergence; conditions: Galium, post-emergence, 240 h, Postemergence, read-out: Galium plant response rating (0 to 100 scale); for pest or weed control at 125 g/ha: 125 g ai/ha, visual rating about 10 d after treatment; for pest or weed control at 31 g/ha: 31 g ai/ha, 0 is no effect, 100 is complete control
In short: as §2

[10] = test system: corn (Zea mays); experiment: Test A postemergence; conditions: Zea mays, post-emergence, 240 h, Postemergence, read-out: Corn plant response rating (0 to 100 scale); for plant injury at 125 g/ha: 125 g ai/ha, visual rating about 10 d after treatment; for plant injury at 31 g/ha: 31 g ai/ha, 0 is no effect, 100 is complete control
In short: as §2

[11] = test system: Kochia (Kochia scoparia); experiment: Test A postemergence; conditions: Bassia scoparia, post-emergence, 240 h, Postemergence, read-out: Kochia plant response rating (0 to 100 scale); for pest or weed control at 125 g/ha: 125 g ai/ha, visual rating about 10 d after treatment; for pest or weed control at 31 g/ha: 31 g ai/ha, 0 is no effect, 100 is complete control
In short: as §2

[12] = test system: giant foxtail (Setaria faberii); experiment: Test A postemergence; conditions: Setaria faberi, post-emergence, 240 h, Postemergence, read-out: Foxtail, Giant plant response rating (0 to 100 scale); for pest or weed control at 125 g/ha: 125 g ai/ha, visual rating about 10 d after treatment; for pest or weed control at 31 g/ha: 31 g ai/ha, 0 is no effect, 100 is complete control
In short: as §2

[13] = test system: pigweed (Amaranthus retroflexus); experiment: Test A postemergence; conditions: Amaranthus retroflexus, post-emergence, 240 h, Postemergence, read-out: Pigweed plant response rating (0 to 100 scale); for pest or weed control at 125 g/ha: 125 g ai/ha, visual rating about 10 d after treatment; for pest or weed control at 31 g/ha: 31 g ai/ha, 0 is no effect, 100 is complete control
In short: as §2

[14] = test system: blackgrass (Alopecurus myosuroides); experiment: Test A postemergence; conditions: Alopecurus myosuroides, post-emergence, 240 h, Postemergence, read-out: Blackgrass plant response rating (0 to 100 scale); for pest or weed control at 125 g/ha: 125 g ai/ha, visual rating about 10 d after treatment; for pest or weed control at 31 g/ha: 31 g ai/ha, 0 is no effect, 100 is complete control
In short: as §2

[15] = test system: ryegrass, Italian (Italian ryegrass, Lolium multiflorum); experiment: Test A preemergence; conditions: Lolium multiflorum, pre-emergence, 240 h, 0 to 100 scale where 0 is no effect and 100 is complete control, read-out: Ryegrass, Italian plant response rating; for pest or weed control at 31 g/ha: 31 g ai/ha, Preemergence; for pest or weed control at 125 g/ha: 125 g ai/ha, preemergence, visual injury rating, approximately 10 d
In short: as §2

[16] = test system: ragweed (common ragweed, Ambrosia elatior); experiment: Test A preemergence; conditions: Ambrosia artemisiifolia, pre-emergence, 240 h, 0 to 100 scale where 0 is no effect and 100 is complete control, read-out: Ragweed plant response rating; for pest or weed control at 31 g/ha: 31 g ai/ha, Preemergence; for pest or weed control at 125 g/ha: 125 g ai/ha, preemergence, visual injury rating, approximately 10 d
In short: as §2

[17] = test system: barnyardgrass (Echinochloa crus-galli); experiment: Test A preemergence; conditions: Echinochloa crus-galli, pre-emergence, 240 h, 0 to 100 scale where 0 is no effect and 100 is complete control, read-out: Barnyardgrass plant response rating; for pest or weed control at 31 g/ha: 31 g ai/ha, Preemergence; for pest or weed control at 125 g/ha: 125 g ai/ha, preemergence, visual injury rating, approximately 10 d
In short: as §2

[18] = test system: Kochia (Kochia scoparia); experiment: Test A preemergence; conditions: Bassia scoparia, pre-emergence, 240 h, 0 to 100 scale where 0 is no effect and 100 is complete control, read-out: Kochia plant response rating; for pest or weed control at 31 g/ha: 31 g ai/ha, Preemergence; for pest or weed control at 125 g/ha: 125 g ai/ha, preemergence, visual injury rating, approximately 10 d
In short: as §2

[19] = test system: giant foxtail (Setaria faberii); experiment: Test A preemergence; conditions: Setaria faberi, pre-emergence, 240 h, 0 to 100 scale where 0 is no effect and 100 is complete control, read-out: Foxtail, Giant plant response rating; for pest or weed control at 31 g/ha: 31 g ai/ha, Preemergence; for pest or weed control at 125 g/ha: 125 g ai/ha, preemergence, visual injury rating, approximately 10 d
In short: as §2

[20] = test system: pigweed (Amaranthus retroflexus); experiment: Test A preemergence; conditions: Amaranthus retroflexus, pre-emergence, 240 h, 0 to 100 scale where 0 is no effect and 100 is complete control, read-out: Pigweed plant response rating; for pest or weed control at 31 g/ha: 31 g ai/ha, Preemergence; for pest or weed control at 125 g/ha: 125 g ai/ha, preemergence, visual injury rating, approximately 10 d

SMILES | pest or weed control at 250 g/ha [1] | pest or weed control at 250 g/ha [2] | pest or weed control at 250 g/ha [3] | pest or weed control at 250 g/ha [4] | pest or weed control at 125 g/ha [5] | pest or weed control at 31 g/ha [5] | pest or weed control at 125 g/ha [6] | pest or weed control at 31 g/ha [6] | pest or weed control at 125 g/ha [7] | pest or weed control at 31 g/ha [7] | plant injury at 125 g/ha [8] | plant injury at 31 g/ha [8] | pest or weed control at 125 g/ha [9] | pest or weed control at 31 g/ha [9] | plant injury at 125 g/ha [10] | plant injury at 31 g/ha [10] | pest or weed control at 125 g/ha [11] | pest or weed control at 31 g/ha [11] | pest or weed control at 125 g/ha [12] | pest or weed control at 31 g/ha [12] | other results
CN1C[C@H](c2cc(Cl)cc(Cl)c2)[C@@H](C(=O)Nc2cccc(F)c2F)C1=O [Compound 1270] | 60% | 0% | 80% | 15% | 30% | 0% | 0% | 0% | 90% | 90% | 40% | 0% | 70% | 60% | 20% | 0% | 60% | 0% | 80% | 60% | pest or weed control at 125 g/ha [13]: 60%; pest or weed control at 31 g/ha [13]: 40%; pest or weed control at 125 g/ha [14]: 40%; pest or weed control at 31 g/ha [14]: 0%; pest or weed control at 31 g/ha [15]: 0%; pest or weed control at 125 g/ha [15]: 40%; pest or weed control at 31 g/ha [16]: 0%; pest or weed control at 125 g/ha [16]: 30%; pest or weed control at 31 g/ha [17]: 70%; pest or weed control at 125 g/ha [17]: 90%; pest or weed control at 31 g/ha [18]: 40%; pest or weed control at 125 g/ha [18]: 60%; pest or weed control at 31 g/ha [19]: 90%; pest or weed control at 125 g/ha [19]: 90%; pest or weed control at 31 g/ha [20]: 0%; pest or weed control at 125 g/ha [20]: 40%
O=C(Nc1ccccc1F)C1C(=O)N(CC(F)F)CC1c1cccc(C(F)(F)F)c1 (stereo not drawn) [Compound 1293] | 0% | 0% | 0% | 0% | 0% | 0% | 0% | 0% | 20% | 0% | 0% | 0% | 0% | 0% | 0% | 0% | 0% | 0% | 0% | 0% | pest or weed control at 125 g/ha [13]: 0%; pest or weed control at 31 g/ha [13]: 0%; pest or weed control at 125 g/ha [14]: 0%; pest or weed control at 31 g/ha [14]: 0%; pest or weed control at 31 g/ha [15]: 0%; pest or weed control at 125 g/ha [15]: 0%; pest or weed control at 31 g/ha [16]: 0%; pest or weed control at 125 g/ha [16]: 0%; pest or weed control at 31 g/ha [17]: 0%; pest or weed control at 125 g/ha [17]: 20%; pest or weed control at 31 g/ha [18]: 0%; pest or weed control at 125 g/ha [18]: 0%; pest or weed control at 31 g/ha [19]: 0%; pest or weed control at 125 g/ha [19]: 20%; pest or weed control at 31 g/ha [20]: 0%; pest or weed control at 125 g/ha [20]: 0%

Source: patent US12077503B2, “Substituted cyclic amides and their use as herbicides” (FMC CORPORATION, priority 2015, dated 2024)
